{"source": "patent US11160766B2", "about": "“Peritoneal therapeutic fluid” (OPTERION Health AG, priority 2015, dated 2021)", "key": {"[1]": {"system": "Human peritoneal mesothelial cells (HPMC)", "assay": "resazurin cell viability assay on HPMC exposed to PD solutions", "format": "cell-based", "conditions": "for type of dialysis solution mainly improved: summary of example 4; for effect on cell viability in control medium: Medium control without cytotoxic stress, until Cmax (500 μM); for effect reducing cyto-toxicity of all three tested peritoneal dialysis solutions: Example 2 conclusion, PD solutions #1 to #3; for cell viability on Glucose based and on Icodextrin based PD-Solutions: summary of examples 1 to 4; for improvement of viability of HPMC cells (resazurin to resorufin conversion): Example 3, added 5 minutes in advance, triplicate", "method": "(§1) Human peritoneal mesothelial cells (HPMC) were purchased from Zen Bio Inc. and cultured in cell culture flasks using suppliers media. Near confluent HPMC were harvested by trypsinization, seeded into collagen-coated 96-well tissue culture plates (Corning) and allowed to adhere overnight. The medium was changed to twice diluted with dialysis solution for 48 up to 72 hours.\nCell viability was established applying the promega resazurin assay, following the suppliers protocol. Living cells are metabolically active and are able to reduce the non-fluorescent dye resazurin to the strongly-fluorescent dye resorufin. The fluorescence output is proportional to the number of viable cells over a wide concentration range. This also allows the calculation of the proliferation rate for cells capable of consecutive cell division. […] For the dose-response relationship, relative viability was plotted against the test item concentrations.\nAll assays were conducted in a duplex format using the same cell culture.\nAddition of selected BCAs of this invention partially reestablished reszurin to reorufin conversion, which is interpreted as a result of a decreased cytotoxicity, due to the application of the tested BCAs. Compounds were added at 9 dilutions (Cmax=500 μM) together with tested PD solutions or Medium control. Incubation was 48 hours.\nAddition of selected BCA resveratrol partially reestablished resazurin to reorufin conversion, in a triplicate assay, which is interpreted as a result of a decreased cytotoxicity, due to the application of the tested BCA. In this series, Resveratrol was added 5 minutes in advance to application of test-solutions, at 9 dilutions (Cmax=500 μM). Incubation was 72 hours.\npartially reestablished resazurin to reorufin conversion, or partly re-established intracellular ATP-level, which is interpreted as a result of a decreased cytotoxicity, due to the application of the tested BCA. Test items were tested at 3 replicates per concentration. All assays were conducted in a duplex format using the same cell culture. Incubation was 72 hours."}, "[2]": {"system": "Human peritoneal mesothelial cells (HPMC)", "assay": "CTG assay, intra-cellular ATP level in HPMC exposed to PD solution", "format": "cell-based", "conditions": "Example 4; PD-Solution #4; 72 hours", "method": "as §1\nIn the case of Piceid, the intra-cellular ATP level was determined with the CTG assay. For this, media was completely removed from all wells by aspiration, 60 μl of CTG reagent was added to each well, and incubated for 5 min at RT while softly shaking (50 rpm). Using a Victor3 1420 Multilabel Counter, the emitted luminescence produced in the CTG assay was measured. For the dose-response relationship, absolute luminescence (background subtracted) was related to the negative (medium) control and relative viability values were plotted against the test item concentrations. For the dose-response relationship, absolute luminescence (background subtracted) was related to the negative (medium) control and relative viability values in presence of BCA were plotted against the BCA concentrations.\npartially reestablished resazurin to reorufin conversion, or partly re-established intracellular ATP-level, which is interpreted as a result of a decreased cytotoxicity, due to the application of the tested BCA. […]"}, "VEGF": {"system": "VEGF", "assay": "peritoneal tissue VEGF (ELISA) in rats after chronic peritoneal dialysis", "format": "in vivo, Sprague-Dawley rats", "conditions": "for VEGF concentration (pg/mL) in prot. prep., single animals: peritoneal tissue", "method": "Animal Studies have been carried out as described in Lee et al. 2012: Peritoneal access ports were inserted in male Sprague-Dawley rats. After one week, rats started to received peritoneal treatment: 10 rats receive once daily 20 ml of Sol #4, 10 rats received 20 ml of Sol #4 with addition of selected BCA (resveratrol), during 2 hour infusions. After 2 to 4 weeks, the abdomen was opened, the peritoneum was recovered and submitted to protein extraction. Tissue VEGF concentration was established by ELISA (Abcam Rat VEGF ELISA Kit, ab100787) on obtained protein preparations (pg/ml)."}, "[3]": {"assay": "concentration (solubility) after stirring at room temperature", "format": "physicochemical", "method": "Concentrations of BCA in the present invention are preferably measured after 1 hour stirring at room temperature (which is preferably 20-23° C., more preferably 22° C.), particularly if the BCA is a polyphenolic compound, a metabolite of a polyphenolic compound which is obtained by metabolization in the human or animal body, a salt of a polyphenolic compound, a glycoside of a polyphenolic compound, or derivative of these compounds. So, concentrations of said compound correspond to measured solubility after 1 hour stirring at room temperature. Concentration is measured in a PTF of the invention. So, BCA can be dissolved in water. Other ingredients of a PTF, which are mentioned in this description, are preferably present. If not specifically indicated, or if not specifically indicated otherwise, the time of stirring is one hour. In some cases, other stirring times are indicated, such as 12 hours."}, "[4]": {"conditions": "Example 4, PD-Solution #3, 72 hours, 3 replicates per concentration"}, "[5]": {"conditions": "Example 4, PD-Solution #4, 72 hours, 3 replicates per concentration"}, "[6]": {"conditions": "Example 2, PD-Solution #1, 48 hours, 9 dilutions, Cmax=500 μM"}, "[7]": {"conditions": "Example 2, PD-Solution #2, 48 hours, 9 dilutions, Cmax=500 μM"}}, "note": "“And” between values parts separate entries of the source, which are not always exact repeats. Equal values may be shown once.", "data": [{"smiles": "Oc1cc(O)cc(/C=C/c2ccc(O)c(O)c2)c1", "note": "[Piceatannol]", "values": [{"measurement": "improvement of cell viability of HPMC cells (resazurin to resorufin conversion)", "setting": "[1]; [4]", "value": "up to 44%"}, {"measurement": "improvement of cell viability of HPMC cells (resazurin to resorufin conversion)", "setting": "[1]; [5]", "value": "up to 40%"}]}, {"smiles": "O=C(O)/C=C/c1ccc(O)c(O)c1", "note": "[Cafeic Acid, caffeic acid]", "values": [{"measurement": "improvement of cell viability of HPMC cells (resazurin to resorufin conversion)", "setting": "[1]; [4]", "value": "up to 32%"}, {"measurement": "improvement of cell viability of HPMC cells (resazurin to resorufin conversion)", "setting": "[1]; [5]", "value": "minor"}, {"measurement": "type of dialysis solution mainly improved", "setting": "[1]", "value": "mainly improved Icodextrin based dialysis solutions"}]}, {"smiles": "OC[C@H]1O[C@@H](Oc2cc(O)cc(/C=C/c3ccc(O)cc3)c2)[C@H](O)[C@@H](O)[C@@H]1O", "note": "[Piceid, resveratrol-3-O-β-mono-D-glucoside]", "values": [{"measurement": "effect on cell viability in control medium", "setting": "[1]; Example 2, 48 hours", "value": "no significant effect"}, {"measurement": "improvement of cell viability of HPMC cells (resazurin to resorufin conversion)", "setting": "[1]; [6]", "value": "minor improvements"}, {"measurement": "improvement of cell viability of HPMC cells (resazurin to resorufin conversion)", "setting": "[1]; [7]", "value": "minor improvements"}, {"measurement": "effect reducing cyto-toxicity of all three tested peritoneal dialysis solutions", "setting": "[1]; 48 hours", "value": "minor effect"}, {"measurement": "improvement of cell viability of HPMC cells (resazurin to resorufin conversion)", "setting": "[1]; [4]", "value": "up to 32%"}, {"measurement": "improvement of cell viability of HPMC cells (resazurin to resorufin conversion)", "setting": "[1]; [5]", "value": "up to 17%"}, {"measurement": "cell viability on Glucose based and on Icodextrin based PD-Solutions", "setting": "[1]", "value": "increased cell viability"}, {"measurement": "improvement of viability of HPMC cells measured by ATP-level re-establishment", "setting": "[2]", "value": 51, "unit": "%"}]}, {"smiles": "Oc1cc(O)c2cc(O)c(-c3cc(O)c(O)c(O)c3)[o+]c2c1", "note": "[Delphinidin]", "values": [{"measurement": "improvement of cell viability of HPMC cells (resazurin to resorufin conversion)", "setting": "[1]; [4]", "value": "up to 57%"}]}, {"smiles": "Oc1ccc(/C=C/c2cc(O)cc(O)c2)cc1", "note": "[Resveratrol, trans-3,5,4′-trihydroxystilbene]", "values": [{"measurement": "VEGF concentration (pg/mL) in prot. prep., Average", "setting": "VEGF; Sol #4 + 40 μM Resveratrol, 2 and 4 weeks combined, 10 rats", "value": 60.94, "unit": "pg/mL"}, {"measurement": "VEGF concentration (pg/mL) in prot. prep., single animals", "setting": "VEGF; Sol #4 + 40 μM Resveratrol, 2 weeks treatment", "value": "50.21 pg/mL and 39.99 pg/mL and 70.88 pg/mL and 77.84 pg/mL and 60.12 pg/mL"}, {"measurement": "VEGF concentration (pg/mL) in prot. prep., single animals", "setting": "VEGF; Sol #4 + 40 μM Resveratrol, 4 weeks treatment", "value": "62.02 pg/mL and 63.71 pg/mL and 57.91 pg/mL and 68.45 pg/mL and 58.23 pg/mL"}, {"measurement": "expression of VEGF in the peritoneum of standard PDF treated rats", "setting": "VEGF; addition to Sol #4, 2 to 4 weeks peritoneal dialysis", "value": "decreases expression of VEGF"}, {"measurement": "effect on cell viability in control medium", "setting": "[1]; Example 2, 48 hours", "value": "no significant effect"}, {"measurement": "improvement of cell viability of HPMC cells (resazurin to resorufin conversion)", "setting": "[1]; [6]", "value": "up to 20%"}, {"measurement": "improvement of cell viability of HPMC cells (resazurin to resorufin conversion)", "setting": "[1]; [7]", "value": "up to 40%"}, {"measurement": "improvement of cell viability of HPMC cells (resazurin to resorufin conversion)", "setting": "[1]; Example 2, PD-Solution #3, 48 hours, 9 dilutions, Cmax=500 μM", "value": "up to 40%"}, {"measurement": "effect reducing cyto-toxicity of all three tested peritoneal dialysis solutions", "setting": "[1]; 48 hours", "value": "strong effect"}, {"measurement": "improvement of viability of HPMC cells (resazurin to resorufin conversion)", "setting": "[1]; PD-Solution #1, 72 hours, Cmax=500 μM", "value": "up to 84%"}, {"measurement": "improvement of viability of HPMC cells (resazurin to resorufin conversion)", "setting": "[1]; PD-Solution #2, 72 hours, Cmax=500 μM", "value": "up to 28%"}, {"measurement": "improvement of viability of HPMC cells (resazurin to resorufin conversion)", "setting": "[1]; PD-Solution #3, 72 hours, Cmax=500 μM", "value": "up to 105%"}, {"measurement": "cell viability on Glucose based and on Icodextrin based PD-Solutions", "setting": "[1]", "value": "increased cell viability"}, {"measurement": "concentration after 12 hours stirring", "setting": "[3]", "value": "above 24 mg/L"}]}, {"smiles": "O=c1cc(-c2ccc(O)c(O)c2)oc2cc(O)cc(O)c12", "note": "[Luteolin]", "values": [{"measurement": "improvement of cell viability of HPMC cells (resazurin to resorufin conversion)", "setting": "[1]; [4]", "value": "up to 56%"}, {"measurement": "improvement of cell viability of HPMC cells (resazurin to resorufin conversion)", "setting": "[1]; [5]", "value": "up to 21%"}, {"measurement": "type of dialysis solution mainly improved", "setting": "[1]", "value": "mainly improved Icodextrin based dialysis solutions"}]}, {"smiles": "COc1cc(/C=C/c2ccc(O)cc2)cc(OC)c1", "note": "[Pterostilbene]", "values": [{"measurement": "improvement of cell viability of HPMC cells (resazurin to resorufin conversion)", "setting": "[1]; [4]", "value": 183, "unit": "%"}, {"measurement": "improvement of cell viability of HPMC cells (resazurin to resorufin conversion)", "setting": "[1]; [5]", "value": 118, "unit": "%"}]}]}
